“And” between values parts separate entries of the source, which are not always exact repeats. Equal values may be shown once. Toxic doses and inconclusive results are not listed. Cut-off read from the data, not from the text of the source: active = T/C of 150% or more; inactive = T/C below 125%.
Tested on: L1210 leukemia ip in BDF1 mice, survival T/C
Assay: NCI In Vivo Anticancer Drug Screen. Data for tumor model L1210 Leukemia (intraperitoneal) in B6D2F1 (BDF1) mice
Conditions: endpoint: mean survival time, higher = longer survival
Procedure, shortened: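 Transplanted-tumor mice were given test agent; controls received vehicle only. Survival readings from the two groups were divided (treated over control).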

[1] = dose: 12.5 mg/kg/injection, schedule: Q04DX002 (ip), vehicle: saline with Tween-80
[2] = dose: 25.0 mg/kg/injection, schedule: Q04DX002 (ip), vehicle: saline with Tween-80
[3] = dose: 50.0 mg/kg/injection, schedule: Q04DX002 (ip), vehicle: saline with Tween-80
[4] = dose: 100.0 mg/kg/injection, schedule: Q01DX009 (ip), vehicle: saline with Tween-80
[5] = dose: 100.0 mg/kg/injection, schedule: Q01DX001 (ip), vehicle: carboxymethylcellulose (CMC)
[6] = dose: 200.0 mg/kg/injection, schedule: Q01DX001 (ip), vehicle: carboxymethylcellulose (CMC)
[7] = dose: 100.0 mg/kg/injection, schedule: Q04DX003 (ip), vehicle: saline
[8] = dose: 200.0 mg/kg/injection, schedule: Q04DX003 (ip), vehicle: saline
[9] = dose: 400.0 mg/kg/injection, schedule: Q04DX003 (ip), vehicle: saline
[10] = dose: 100.0 mg/kg/injection, schedule: Q01DX001 (ip), vehicle: saline
[11] = dose: 200.0 mg/kg/injection, schedule: Q01DX001 (ip), vehicle: saline
[12] = dose: 100.0 mg/kg/injection, schedule: Q01DX009 (ip), vehicle: Klucel (hydroxypropylcellulose) (HPC)
[13] = dose: 200.0 mg/kg/injection, schedule: Q01DX009 (ip), vehicle: Klucel (hydroxypropylcellulose) (HPC)
[14] = dose: 400.0 mg/kg/injection, schedule: Q01DX001 (ip), vehicle: carboxymethylcellulose (CMC)
[15] = dose: 400.0 mg/kg/injection, schedule: Q01DX009 (ip), vehicle: Klucel (hydroxypropylcellulose) (HPC)
[16] = dose: 100.0 mg/kg/injection, schedule: Q04DX003 (ip), vehicle: Klucel (hydroxypropylcellulose) (HPC)
[17] = dose: 200.0 mg/kg/injection, schedule: Q04DX003 (ip), vehicle: Klucel (hydroxypropylcellulose) (HPC)
[18] = dose: 400.0 mg/kg/injection, schedule: Q04DX003 (ip), vehicle: Klucel (hydroxypropylcellulose) (HPC)

Measured: T/C

C=CC(=O)N1CCN(C(=O)C=C)CC1 (tested in a mixture with another compound)
inactive: dose: 0.04 mg/kg/injection, schedule: Q04DX002 (ip), vehicle: saline 101 % of control | dose: 0.09 mg/kg/injection, schedule: Q04DX002 (ip), vehicle: saline 97 % of control | dose: 0.18 mg/kg/injection, schedule: Q04DX002 (ip), vehicle: saline 97 % of control and 100 % of control | dose: 0.75 mg/kg/injection, schedule: Q04DX002 (ip), vehicle: saline 109 % of control | dose: 1.5 mg/kg/injection, schedule: Q04DX002 (ip), vehicle: saline 103 % of control | dose: 3.12 mg/kg/injection, schedule: Q04DX002 (ip), vehicle: saline 106 % of control | dose: 6.25 mg/kg/injection, schedule: Q04DX002 (ip), vehicle: saline + alcohol 97 % of control | dose: 6.25 mg/kg/injection, schedule: Q04DX002 (ip), vehicle: saline 103 % of control | dose: 12.5 mg/kg/injection, schedule: Q04DX002 (ip), vehicle: saline + alcohol 101 % of control | [1] 94 % of control | dose: 12.5 mg/kg/injection, schedule: Q04DX002 (ip), vehicle: saline 103 % of control | dose: 25.0 mg/kg/injection, schedule: Q04DX002 (ip), vehicle: saline + alcohol 104 % of control and 89 % of control | [2] 109 % of control | dose: 50.0 mg/kg/injection, schedule: Q04DX002 (ip), vehicle: saline + alcohol 92 % of control | [3] 91 % of control | dose: 50.0 mg/kg/injection, schedule: Q04DX002 (ip), vehicle: saline 96 % of control and 105 % of control | dose: 100.0 mg/kg/injection, schedule: Q04DX002 (ip), vehicle: saline + alcohol 100 % of control | dose: 100.0 mg/kg/injection, schedule: Q04DX002 (ip), vehicle: saline 100 % of control and 97 % of control and 105 % of control | dose: 200.0 mg/kg/injection, schedule: Q04DX002 (ip), vehicle: saline 97 % of control and 90 % of control | dose: 400.0 mg/kg/injection, schedule: Q04DX002 (ip), vehicle: saline 90 % of control

C=C(Cl)c1c(C)cc(C)cc1C
inactive: dose: 25.0 mg/kg/injection, schedule: Q01DX009 (ip), vehicle: saline with Tween-80 98 % of control | dose: 50.0 mg/kg/injection, schedule: Q01DX009 (ip), vehicle: saline with Tween-80 104 % of control | [4] 98 % of control and 88 % of control | dose: 100.0 mg/kg/injection, schedule: Q04DX003 (ip), vehicle: saline with Tween-80 97 % of control | dose: 200.0 mg/kg/injection, schedule: Q04DX003 (ip), vehicle: saline with Tween-80 86 % of control

CCCCCCCCCCCCCCCC(=O)Nc1ccc(Cl)c(Cl)c1
inactive: dose: 50.0 mg/kg/injection, schedule: Q04DX003 (ip), vehicle: carboxymethylcellulose (CMC) 87 % of control | [5] 89 % of control | dose: 100.0 mg/kg/injection, schedule: Q01DX009 (ip), vehicle: carboxymethylcellulose (CMC) 102 % of control and 89 % of control | dose: 100.0 mg/kg/injection, schedule: Q04DX002 (ip), vehicle: other 92 % of control and 101 % of control | dose: 100.0 mg/kg/injection, schedule: Q04DX003 (ip), vehicle: carboxymethylcellulose (CMC) 95 % of control | [6] 90 % of control | dose: 200.0 mg/kg/injection, schedule: Q01DX009 (ip), vehicle: carboxymethylcellulose (CMC) 96 % of control and 86 % of control | dose: 200.0 mg/kg/injection, schedule: Q04DX002 (ip), vehicle: other 93 % of control and 89 % of control | dose: 200.0 mg/kg/injection, schedule: Q04DX003 (ip), vehicle: carboxymethylcellulose (CMC) 87 % of control | dose: 400.0 mg/kg/injection, schedule: Q01DX009 (ip), vehicle: carboxymethylcellulose (CMC) 93 % of control and 86 % of control | dose: 400.0 mg/kg/injection, schedule: Q04DX002 (ip), vehicle: other 93 % of control and 94 % of control

Cc1ccc(/C=N\N=C\c2ccc(C)cc2)cc1
inactive: [4] 96 % of control | dose: 200.0 mg/kg/injection, schedule: Q01DX009 (ip), vehicle: saline with Tween-80 91 % of control

CCCS(=O)(=O)C(S(C)(=O)=O)S(=O)(=O)CC (stereo not given)
inactive: dose: 100.0 mg/kg/injection, schedule: Q01DX001 (ip), vehicle: Klucel (hydroxypropylcellulose) (HPC) 94 % of control | dose: 200.0 mg/kg/injection, schedule: Q01DX001 (ip), vehicle: Klucel (hydroxypropylcellulose) (HPC) 98 % of control | dose: 400.0 mg/kg/injection, schedule: Q01DX001 (ip), vehicle: Klucel (hydroxypropylcellulose) (HPC) 91 % of control

Cc1c2oc3c(C)ccc(C(=O)OCCN4CCCC4)c3nc-2c(C(=O)OCCN2CCCC2)c(N)c1=O
inactive: dose: 100.0 mg/kg/injection, schedule: Q04DX002 (ip), vehicle: saline with Tween-80 98 % of control | dose: 200.0 mg/kg/injection, schedule: Q04DX002 (ip), vehicle: saline with Tween-80 106 % of control | dose: 400.0 mg/kg/injection, schedule: Q04DX002 (ip), vehicle: saline with Tween-80 98 % of control

NC(N)=Nc1ccc(S(=O)(=O)O)cc1
inactive: [7] 103 % of control | [8] 105 % of control | [9] 103 % of control

COC(=O)c1nc[nH]c1C(=O)OC
inactive: [7] 112 % of control | [8] 93 % of control | [9] 109 % of control

CCOC(=O)C(OC(=O)c1ccccc1)(OC(=O)c1ccccc1)C(=O)OCC
inactive: [10] 101 % of control | [11] 93 % of control

NC1=NC(=O)C(c2ccccc2)(c2ccccc2)S1
inactive: [5] 91 % of control | [12] 97 % of control | dose: 100.0 mg/kg/injection, schedule: Q04DX002 (ip), vehicle: Klucel (hydroxypropylcellulose) (HPC) 94 % of control | [6] 98 % of control | [13] 97 % of control | dose: 200.0 mg/kg/injection, schedule: Q04DX002 (ip), vehicle: Klucel (hydroxypropylcellulose) (HPC) 90 % of control | [14] 91 % of control | [15] 97 % of control | dose: 400.0 mg/kg/injection, schedule: Q04DX002 (ip), vehicle: Klucel (hydroxypropylcellulose) (HPC) 97 % of control

O=C(O)C12C3(Cl)C4(Cl)C5(OCCO5)C5(Cl)C3(Cl)C1(Cl)C5(Cl)C42Cl (stereo not given)
inactive: dose: 50.0 mg/kg/injection, schedule: Q01DX001 (ip), vehicle: saline 105 % of control | [10] 102 % of control | [11] 100 % of control

CC(C)CCO[Si](C)(C)CCl
inactive: dose: 50.0 mg/kg/injection, schedule: Q01DX001 (ip), vehicle: carboxymethylcellulose (CMC) 103 % of control | [5] 103 % of control | [6] 97 % of control | [14] 103 % of control

O=C(NC(=S)N1CC=CCC1)c1ccccc1
inactive: dose: 100.0 mg/kg/injection, schedule: Q04DX002 (ip), vehicle: gum acacia 97 % of control | dose: 200.0 mg/kg/injection, schedule: Q04DX002 (ip), vehicle: gum acacia 100 % of control | dose: 400.0 mg/kg/injection, schedule: Q04DX002 (ip), vehicle: gum acacia 93 % of control

Cc1cccc(NC(=O)c2ccc(Cl)c(Cl)c2)c1C
inactive: [12] 94 % of control | [16] 93 % of control | [13] 88 % of control | [17] 91 % of control | [15] 88 % of control | [18] 95 % of control

O=[N+]([O-])c1ccc(/C=C/c2ncc[nH]2)o1
inactive: [16] 92 % of control | [17] 92 % of control

ClC12OOC(c3ccccc3)(O1)C(c1ccccc1)c1ccccc12 (stereo not given)
inactive: [16] 93 % of control | [17] 98 % of control | [18] 98 % of control

CN(C)N=Nc1cn[nH]c1C(N)=O
inactive: dose: 25.0 mg/kg/injection, schedule: Q01DX009 (ip), vehicle: Klucel (hydroxypropylcellulose) (HPC) 117 % of control | dose: 50.0 mg/kg/injection, schedule: Q01DX009 (ip), vehicle: Klucel (hydroxypropylcellulose) (HPC) 112 % of control and 117 % of control and 118 % of control | [16] 96 % of control and 121 % of control | [7] 111 % of control | dose: 178.0 mg/kg/injection, schedule: Q01DX009 (ip), vehicle: saline 87 % of control | [13] 105 % of control and 113 % of control | [17] 98 % of control | [8] 119 % of control | dose: 267.0 mg/kg/injection, schedule: Q01DX009 (ip), vehicle: saline 91 % of control | [15] 103 % of control

N#C[CH2][Sn]([I])([c]1ccccc1)[c]1ccccc1
inactive: [1] 100 % of control | [2] 107 % of control | [3] 91 % of control
